Activity calls are given as the source filed them.
Assays:
[1] = biological target: Voltage-gated N-type calcium channel alpha-1B subunit/Amyloid beta A4 precursor protein-binding family A member 1 (Homo sapiens, UniProt Q00975+Q02410); assay: disruptors of Mint-PDZ/N-type channel peptide interaction – biochemical, HTRF, set 2, SAR follow-up (AID 434980); type: functional
X-box-binding protein 1 = X-box-binding protein 1 (Homo sapiens, UniProt P17861); type: functional, Cricetulus griseus;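 note: confirmatory dose-response counter-screen serving a CHOP assay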
Sequence of X-box-binding protein 1 (P17861 whole entry): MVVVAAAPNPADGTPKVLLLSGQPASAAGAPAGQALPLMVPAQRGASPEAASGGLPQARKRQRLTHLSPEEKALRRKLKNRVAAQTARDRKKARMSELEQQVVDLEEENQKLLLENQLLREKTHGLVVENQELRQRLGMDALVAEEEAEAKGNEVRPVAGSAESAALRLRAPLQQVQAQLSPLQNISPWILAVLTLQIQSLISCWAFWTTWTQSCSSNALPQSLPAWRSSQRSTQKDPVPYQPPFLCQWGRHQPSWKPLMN

Cytochrome P450 2C19 = Cytochrome P450 2C19 (Homo sapiens, UniProt P33261); assay: Cytochrome panel assay with activity outcomes. Panel member name: p450-cyp2c19 Compounds with AC50 equal or less than 10 uM are considered active; type: functional; settings: read-out: AC50
Sequence of Cytochrome P450 2C19 (P33261 whole entry): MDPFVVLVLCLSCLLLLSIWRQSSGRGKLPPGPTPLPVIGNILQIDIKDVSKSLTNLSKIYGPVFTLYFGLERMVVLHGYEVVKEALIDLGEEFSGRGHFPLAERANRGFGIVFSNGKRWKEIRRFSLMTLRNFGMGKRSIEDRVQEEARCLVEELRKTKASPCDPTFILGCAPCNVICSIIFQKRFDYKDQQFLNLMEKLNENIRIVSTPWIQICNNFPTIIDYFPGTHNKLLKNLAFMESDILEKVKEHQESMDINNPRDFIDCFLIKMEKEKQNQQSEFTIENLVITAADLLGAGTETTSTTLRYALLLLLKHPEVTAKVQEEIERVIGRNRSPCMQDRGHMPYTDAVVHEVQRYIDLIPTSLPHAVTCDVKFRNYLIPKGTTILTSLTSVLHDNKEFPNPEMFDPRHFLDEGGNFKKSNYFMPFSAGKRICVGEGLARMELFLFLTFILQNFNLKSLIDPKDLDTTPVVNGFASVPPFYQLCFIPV

[2] = biological target: T1, Aryl hydrocarbon receptor (Homo sapiens, UniProt P35869); assay: Luminescence-based cell-based high throughput dose response assay for activators of the Aryl Hydrocarbon Receptor (AHR). [Related pubchem assays: 2796 (Primary screen (AHR activators in singlicate)), 2845 (Confirmation screen (AHR activators in triplicate)), 434939 (Counterscreen (PXR activators in triplicate)), 2804 (Summary (AHR activators))]; type: ADME
T1 sequence (P35869 whole entry): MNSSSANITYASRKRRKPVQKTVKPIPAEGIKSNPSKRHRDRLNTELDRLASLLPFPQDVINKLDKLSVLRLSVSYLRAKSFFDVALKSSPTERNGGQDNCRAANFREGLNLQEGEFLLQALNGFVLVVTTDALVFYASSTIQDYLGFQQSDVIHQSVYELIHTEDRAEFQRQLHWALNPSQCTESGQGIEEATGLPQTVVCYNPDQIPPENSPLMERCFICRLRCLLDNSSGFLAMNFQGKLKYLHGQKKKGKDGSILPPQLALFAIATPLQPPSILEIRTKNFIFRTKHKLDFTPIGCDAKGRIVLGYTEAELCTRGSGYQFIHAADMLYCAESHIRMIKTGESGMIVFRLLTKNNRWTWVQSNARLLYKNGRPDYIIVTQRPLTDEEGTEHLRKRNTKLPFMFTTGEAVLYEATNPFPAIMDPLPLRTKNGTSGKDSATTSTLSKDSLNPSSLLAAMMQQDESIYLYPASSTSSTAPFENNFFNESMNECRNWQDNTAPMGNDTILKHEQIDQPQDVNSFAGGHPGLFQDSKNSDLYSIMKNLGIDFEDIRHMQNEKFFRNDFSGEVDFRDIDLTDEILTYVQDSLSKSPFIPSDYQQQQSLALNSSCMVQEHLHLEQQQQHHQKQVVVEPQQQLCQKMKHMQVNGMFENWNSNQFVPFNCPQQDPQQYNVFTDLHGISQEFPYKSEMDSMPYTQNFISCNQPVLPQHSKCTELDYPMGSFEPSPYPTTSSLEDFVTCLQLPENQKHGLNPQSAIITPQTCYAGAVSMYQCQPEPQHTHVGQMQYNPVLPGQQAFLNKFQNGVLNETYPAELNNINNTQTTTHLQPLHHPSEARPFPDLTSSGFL

[3] = inhibitors of intracellular T. cruzi replication, confirmation, NIH3T3 host cells, beta-gal luminescence (AID 2044); type: functional, cell-based;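 note: intracellular parasites grown in NIH/3T3 mouse fibroblasts as host cells; luminescent beta-galactosidase reporter signal from transgenic T. cruzi replicating inside host cells; inhibitors lower the luminescence signal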
[4] = biological target: Peroxisome proliferator-activated receptor gamma/Nuclear receptor coactivator 3 (Homo sapiens, UniProt P37231); type: functional;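 note: agonist potency for raising coactivator recruitment to the receptor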
[5] = biological target: Peroxisome proliferator-activated receptor gamma/Nuclear receptor coactivator 2 (Homo sapiens, UniProt P37231); type: functional;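 note: agonist potency for raising coactivator recruitment to the receptor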
[6] = cytotoxicity toward NIH3T3 fibroblasts, dose response, counter-screen, cell-based, ATP luminescence, mouse fibroblasts (AID 2010); type: functional;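 note: cells exposed to compound for about 90 hours before reading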
[7] = biological target: Peroxisome proliferator-activated receptor gamma/Nuclear receptor coactivator 1 (Homo sapiens, UniProt P37231); type: functional;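 note: agonist potency as compounds enhance coactivator SRC-1 recruitment to PPARgamma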
[8] = A Cell Based Secondary Assay To Explore Cytotoxicity of Compounds that Sensitize Mycobacterium Tuberculosis to Beta-Lactam Antibiotics.; type: functional
[9] = Fluorescence-based cell-based high throughput dose response assay for inhibitors of the interaction of nucleotide-binding oligomerization domain containing 2 (NOD2) and the receptor-interacting serine-threonine kinase 2 (RIPK2).; type: functional; settings: Homo sapiens
[10] = biological target: T2, Type-1 angiotensin II receptor (Homo sapiens, UniProt P30556); assay: AT1 receptor antagonists, dose response, selectivity assay for APJ receptor antagonist project, cell-based, uHTS hits (AID 463214); type: functional;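 note: antagonist potency against angiotensin II stimulated AT1 response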
T2 sequence (P30556 whole entry): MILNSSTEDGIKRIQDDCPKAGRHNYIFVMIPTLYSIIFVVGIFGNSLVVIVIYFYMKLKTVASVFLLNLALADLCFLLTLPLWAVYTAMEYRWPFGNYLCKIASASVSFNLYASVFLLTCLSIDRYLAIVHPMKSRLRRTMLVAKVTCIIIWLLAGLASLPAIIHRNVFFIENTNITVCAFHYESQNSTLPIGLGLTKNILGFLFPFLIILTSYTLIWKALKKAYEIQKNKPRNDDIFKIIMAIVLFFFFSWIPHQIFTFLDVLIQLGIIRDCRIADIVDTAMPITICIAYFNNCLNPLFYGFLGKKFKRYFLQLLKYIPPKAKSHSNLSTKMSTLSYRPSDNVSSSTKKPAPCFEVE

[11] = MC4R antagonists, dose response, counter-screen for LGR2 antagonist project, cell-based, plate reader, cherry pick (AID 743444); type: functional;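 note: transfected HEK 293 cells stimulated with alpha-MSH peptide; potency of inhibitors of the alpha-MSH evoked signal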
[12] = Shn3 3'UTR reporter inhibitors, dose response, cell-based, Clone20 osteoblasts, firefly luciferase, cherry-picked (AID 624132); type: functional;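 note: firefly luciferase luminescence from reporter carrying the Shn3 3'UTR in osteoblasts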
[13] = HepG2 cell cytotoxicity, dose response, cytotoxicity control, plate reader, cherry-pick, antagonist series (AID 743416); type: functional, cell-based
[14] = LGR2 antagonists, dose response, cell-based, HEK293, CRE-luciferase reporter, cherry pick, set 2 (AID 743343); type: functional;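 note: transfected cells were stimulated with diluted bursicon conditioned medium after compound addition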
INS1 = assay: beta cell apoptosis inhibitors, cytokine rescue, dose response, luminescence, retest (AID 449756); type: functional, cell-based; settings: Rattus norvegicus;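 note: cell death triggered by IL-1 beta plus TNF-alpha plus IFN-gamma mixture; protective hits raise ATP signal compared with cytokine alone wells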
Beta-galactosidase = Beta-galactosidase (Escherichia coli, UniProt Q8VNN2); assay: PubChem AID 485352; type: functional
Sequence of Beta-galactosidase (Q8VNN2 whole entry): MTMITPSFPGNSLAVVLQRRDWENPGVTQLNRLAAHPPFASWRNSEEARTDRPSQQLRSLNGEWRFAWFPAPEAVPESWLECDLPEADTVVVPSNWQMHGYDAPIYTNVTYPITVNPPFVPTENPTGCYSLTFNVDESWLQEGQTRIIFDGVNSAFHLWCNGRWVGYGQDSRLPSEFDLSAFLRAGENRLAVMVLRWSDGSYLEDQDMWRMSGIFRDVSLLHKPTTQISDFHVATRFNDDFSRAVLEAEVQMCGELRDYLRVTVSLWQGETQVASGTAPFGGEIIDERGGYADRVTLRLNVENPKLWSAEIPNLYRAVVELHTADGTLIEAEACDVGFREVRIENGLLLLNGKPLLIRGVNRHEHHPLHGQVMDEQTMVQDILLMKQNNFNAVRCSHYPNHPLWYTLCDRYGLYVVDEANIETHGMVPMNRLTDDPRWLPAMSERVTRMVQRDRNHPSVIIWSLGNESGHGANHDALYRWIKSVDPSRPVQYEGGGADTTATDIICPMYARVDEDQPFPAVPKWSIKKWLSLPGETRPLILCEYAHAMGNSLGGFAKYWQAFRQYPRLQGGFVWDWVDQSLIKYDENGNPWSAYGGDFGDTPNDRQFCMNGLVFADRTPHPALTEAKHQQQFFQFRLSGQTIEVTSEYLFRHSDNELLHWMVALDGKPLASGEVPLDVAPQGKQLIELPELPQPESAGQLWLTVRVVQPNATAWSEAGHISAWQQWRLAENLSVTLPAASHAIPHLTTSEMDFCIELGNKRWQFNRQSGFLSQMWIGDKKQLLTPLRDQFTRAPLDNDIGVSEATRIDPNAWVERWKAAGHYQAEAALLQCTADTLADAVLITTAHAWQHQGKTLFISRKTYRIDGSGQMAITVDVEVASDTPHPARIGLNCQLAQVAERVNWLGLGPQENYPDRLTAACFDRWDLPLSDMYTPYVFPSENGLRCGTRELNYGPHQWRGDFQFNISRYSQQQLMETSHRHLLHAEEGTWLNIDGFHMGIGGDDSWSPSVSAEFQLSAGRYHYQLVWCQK

[15] = HepG2 cell cytotoxicity, dose response, cytotoxicity control for Shn3 inhibitor project, CellTiter-Glo, cherry-picked (AID 624134); type: functional, cell-based
[16] = A549 cell cytotoxicity, dose response, cytotoxicity control, plate reader, cherry-pick, antagonist series (AID 743412); type: functional, cell-based
[17] = control 3'UTR Renilla luciferase suppression, dose response, counter-screen for Shn3 inhibitor project, cell-based, Clone20-Shn3RL, cherry-picked (AID 624133); type: functional
[18] = microbe, parasite or virus in culture; type: functional; settings: Mycobacterium tuberculosis
[19] = biological target: T3, Heat shock factor protein 1 (Mus musculus, UniProt P38532); assay: inhibition of MG132-induced HSE-luciferase signal, confirmation, cell-based, NIH3T3, luminescence, dose retest (AID 2382); type: functional;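 note: NIH3T3 fibroblasts with HSF1-driven luciferase reporter stressed by proteasome inhibitor MG132; luminescence from HSF1-driven luciferase expression after 8 hours of MG132 stress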
T3 sequence (P38532 whole entry): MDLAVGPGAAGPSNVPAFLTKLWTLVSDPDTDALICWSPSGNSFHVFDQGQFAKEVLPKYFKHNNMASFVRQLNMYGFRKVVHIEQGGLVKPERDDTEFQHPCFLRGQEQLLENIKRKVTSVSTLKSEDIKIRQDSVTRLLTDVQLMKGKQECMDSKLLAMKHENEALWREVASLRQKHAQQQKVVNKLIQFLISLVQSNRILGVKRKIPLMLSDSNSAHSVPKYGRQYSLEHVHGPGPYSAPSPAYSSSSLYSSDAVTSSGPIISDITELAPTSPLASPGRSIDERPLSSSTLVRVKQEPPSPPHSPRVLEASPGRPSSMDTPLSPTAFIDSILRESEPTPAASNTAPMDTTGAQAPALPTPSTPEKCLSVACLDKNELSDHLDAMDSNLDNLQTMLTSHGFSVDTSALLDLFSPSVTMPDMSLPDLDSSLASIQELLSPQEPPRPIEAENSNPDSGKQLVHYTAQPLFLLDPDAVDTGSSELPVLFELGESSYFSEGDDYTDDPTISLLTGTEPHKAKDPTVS

[20] = HEK293 cell cytotoxicity, dose response, cytotoxicity control, plate reader, cherry-picked samples (AID 743446); type: functional, cell-based
[21] = Luminescence-based dose response cell-based high throughput screening assay for cytotoxic compounds using the IEC-6 intestinal epithelial cell line. [Related pubchem assays: 1858 (Summary AID.), 1825 (Counterscreen.), 1907 (Confirmation screen.)]; type: functional
[22] = biological target: T4, Alkaline phosphatase, tissue-nonspecific isozyme (Homo sapiens, UniProt P05186)
T4 sequence (P05186 whole entry): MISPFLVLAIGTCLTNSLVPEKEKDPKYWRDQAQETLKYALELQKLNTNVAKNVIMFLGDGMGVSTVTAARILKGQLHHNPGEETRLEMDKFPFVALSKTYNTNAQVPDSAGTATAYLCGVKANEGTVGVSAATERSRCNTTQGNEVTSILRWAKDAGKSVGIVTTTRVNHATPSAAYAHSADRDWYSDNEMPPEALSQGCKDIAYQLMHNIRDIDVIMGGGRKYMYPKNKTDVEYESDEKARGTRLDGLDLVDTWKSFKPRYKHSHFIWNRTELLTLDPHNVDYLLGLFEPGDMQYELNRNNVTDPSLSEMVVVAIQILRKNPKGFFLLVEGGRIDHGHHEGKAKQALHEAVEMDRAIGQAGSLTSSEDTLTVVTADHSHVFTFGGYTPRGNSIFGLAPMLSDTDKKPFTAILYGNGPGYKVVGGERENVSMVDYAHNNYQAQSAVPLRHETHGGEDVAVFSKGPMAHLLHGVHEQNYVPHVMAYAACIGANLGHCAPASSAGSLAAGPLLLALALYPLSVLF

Sequence of Voltage-gated N-type calcium channel alpha-1B subunit/Amyloid beta A4 precursor protein-binding family A member 1 (Q00975 whole entry): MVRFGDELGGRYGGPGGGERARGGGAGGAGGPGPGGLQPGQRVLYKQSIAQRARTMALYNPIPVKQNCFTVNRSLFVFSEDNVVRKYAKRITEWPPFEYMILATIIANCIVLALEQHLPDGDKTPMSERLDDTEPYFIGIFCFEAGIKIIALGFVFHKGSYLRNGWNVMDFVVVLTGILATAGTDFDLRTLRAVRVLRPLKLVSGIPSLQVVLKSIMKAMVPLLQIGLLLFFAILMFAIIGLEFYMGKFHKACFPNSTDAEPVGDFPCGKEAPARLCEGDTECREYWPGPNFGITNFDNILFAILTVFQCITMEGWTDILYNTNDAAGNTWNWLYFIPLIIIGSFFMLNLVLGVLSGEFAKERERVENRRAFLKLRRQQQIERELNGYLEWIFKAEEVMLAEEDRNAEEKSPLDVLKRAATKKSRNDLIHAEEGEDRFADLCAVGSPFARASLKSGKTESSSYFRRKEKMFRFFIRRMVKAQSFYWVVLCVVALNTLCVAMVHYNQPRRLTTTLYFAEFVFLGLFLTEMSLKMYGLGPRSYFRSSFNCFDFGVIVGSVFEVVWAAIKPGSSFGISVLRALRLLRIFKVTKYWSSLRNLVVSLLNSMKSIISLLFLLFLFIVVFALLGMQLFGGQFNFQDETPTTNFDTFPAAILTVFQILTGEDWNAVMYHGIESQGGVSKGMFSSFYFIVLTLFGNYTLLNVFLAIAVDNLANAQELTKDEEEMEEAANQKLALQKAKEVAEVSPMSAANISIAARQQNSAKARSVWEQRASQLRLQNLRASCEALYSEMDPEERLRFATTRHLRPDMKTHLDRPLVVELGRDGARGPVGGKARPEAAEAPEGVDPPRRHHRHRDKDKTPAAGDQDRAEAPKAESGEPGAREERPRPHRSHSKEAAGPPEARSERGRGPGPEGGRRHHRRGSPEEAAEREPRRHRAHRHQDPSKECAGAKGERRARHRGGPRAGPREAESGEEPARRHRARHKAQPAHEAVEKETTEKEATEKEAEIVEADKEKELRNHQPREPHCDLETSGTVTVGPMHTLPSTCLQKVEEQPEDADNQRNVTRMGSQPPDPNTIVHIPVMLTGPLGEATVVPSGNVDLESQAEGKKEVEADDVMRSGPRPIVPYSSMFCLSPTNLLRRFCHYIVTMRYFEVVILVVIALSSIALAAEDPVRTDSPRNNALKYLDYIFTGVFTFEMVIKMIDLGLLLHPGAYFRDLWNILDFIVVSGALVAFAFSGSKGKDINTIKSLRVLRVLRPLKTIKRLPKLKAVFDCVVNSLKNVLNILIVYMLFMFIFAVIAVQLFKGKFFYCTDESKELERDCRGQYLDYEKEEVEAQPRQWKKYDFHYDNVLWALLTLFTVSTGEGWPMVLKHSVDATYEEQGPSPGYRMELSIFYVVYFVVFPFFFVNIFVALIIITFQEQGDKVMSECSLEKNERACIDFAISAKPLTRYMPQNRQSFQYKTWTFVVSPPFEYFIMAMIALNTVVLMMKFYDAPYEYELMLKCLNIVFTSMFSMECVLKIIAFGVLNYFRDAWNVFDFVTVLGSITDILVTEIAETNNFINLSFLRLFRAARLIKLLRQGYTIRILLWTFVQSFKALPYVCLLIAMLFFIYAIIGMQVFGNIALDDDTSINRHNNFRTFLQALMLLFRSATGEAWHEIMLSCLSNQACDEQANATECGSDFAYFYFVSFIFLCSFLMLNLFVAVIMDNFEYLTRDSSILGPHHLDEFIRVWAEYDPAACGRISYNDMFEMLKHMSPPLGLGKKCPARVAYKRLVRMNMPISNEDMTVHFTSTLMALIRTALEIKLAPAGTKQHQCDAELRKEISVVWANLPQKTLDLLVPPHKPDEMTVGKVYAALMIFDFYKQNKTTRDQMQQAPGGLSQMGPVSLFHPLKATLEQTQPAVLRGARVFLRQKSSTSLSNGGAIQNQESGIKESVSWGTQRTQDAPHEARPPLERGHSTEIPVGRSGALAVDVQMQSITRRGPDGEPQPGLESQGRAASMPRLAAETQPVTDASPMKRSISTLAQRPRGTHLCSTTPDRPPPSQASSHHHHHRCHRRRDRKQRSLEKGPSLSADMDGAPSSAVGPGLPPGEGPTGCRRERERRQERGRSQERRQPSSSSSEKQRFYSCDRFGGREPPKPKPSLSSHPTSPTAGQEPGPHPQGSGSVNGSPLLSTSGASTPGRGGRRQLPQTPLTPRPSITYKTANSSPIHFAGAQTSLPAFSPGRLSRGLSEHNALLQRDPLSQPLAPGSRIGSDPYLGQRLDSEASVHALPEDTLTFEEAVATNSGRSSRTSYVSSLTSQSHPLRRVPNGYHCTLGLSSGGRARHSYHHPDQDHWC
Sequence of Voltage-gated N-type calcium channel alpha-1B subunit/Amyloid beta A4 precursor protein-binding family A member 1 (Q02410 whole entry): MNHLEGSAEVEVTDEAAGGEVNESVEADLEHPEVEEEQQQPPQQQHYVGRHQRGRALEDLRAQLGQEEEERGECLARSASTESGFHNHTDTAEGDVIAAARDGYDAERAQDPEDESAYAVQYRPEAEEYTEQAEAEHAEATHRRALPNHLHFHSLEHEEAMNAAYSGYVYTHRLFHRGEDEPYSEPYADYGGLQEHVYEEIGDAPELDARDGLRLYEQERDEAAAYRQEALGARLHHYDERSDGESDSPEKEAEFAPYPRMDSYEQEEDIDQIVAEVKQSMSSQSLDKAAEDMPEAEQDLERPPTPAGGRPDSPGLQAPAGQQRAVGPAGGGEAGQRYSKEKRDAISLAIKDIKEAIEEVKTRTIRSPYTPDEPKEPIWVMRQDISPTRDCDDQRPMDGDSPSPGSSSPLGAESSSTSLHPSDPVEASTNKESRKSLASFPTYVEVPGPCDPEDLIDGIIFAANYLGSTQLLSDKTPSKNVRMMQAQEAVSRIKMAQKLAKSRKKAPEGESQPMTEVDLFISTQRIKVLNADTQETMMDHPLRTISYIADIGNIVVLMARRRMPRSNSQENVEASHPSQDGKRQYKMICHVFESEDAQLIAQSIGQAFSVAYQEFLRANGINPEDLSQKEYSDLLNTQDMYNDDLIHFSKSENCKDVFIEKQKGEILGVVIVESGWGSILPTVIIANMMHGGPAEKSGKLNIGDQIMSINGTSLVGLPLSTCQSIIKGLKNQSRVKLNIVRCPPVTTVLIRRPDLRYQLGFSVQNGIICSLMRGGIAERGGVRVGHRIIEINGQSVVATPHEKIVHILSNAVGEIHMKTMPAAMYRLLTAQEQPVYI

O=C(c1cc(-c2ccco2)nc2ccccc12)N1CCC(CO)CC1
IC50 [1]: > 56.8 µM (inactive)

CCOC(=O)c1[nH]c2ccc(Cl)cc2c1-c1ccccc1
Absolute IC50 (XBP1) (X-box-binding protein 1): 10 µM
AC50 (Cytochrome P450 2C19): 4.47 µM (inconclusive)

CCOc1cc(S(=O)(=O)Nc2cc(C)cc(C)c2)ccc1Cl
Absolute IC50 (XBP1) (X-box-binding protein 1): 10 µM

CCOc1ccc(/C=N/n2cc(-c3ccccc3)nc2S)cc1
EC50 [2]: 4.76 µM (active)
EC50 [3]: 2.35 µM (active)
EC50 [4]: > 79.4 µM (not active)
EC50 [5]: > 79.4 µM (not active)
EC50 [6]: > 60 µM (not active)
EC50 [7]: > 79.4 µM (not active)

CCN(CC)C(=O)C1CCCN(c2ccc([N+](=O)[O-])cc2/C=N/NC(=O)c2cccc([N+](=O)[O-])c2)C1 (centres undefined)
CC50 [8]: > 40 µM (active)

O=[N+]([O-])c1ccc(S(=O)(=O)c2ccccc2)nc1
IC50 [9]: 2.65 µM (active)
IC50 [10]: 13.1 µM (active)
AC50 [11]: 4.77 µM (active)
EC50 [3]: 1.89 µM (active)
AC50 [12]: 1.74 µM (active)
AC50 [13]: 6.81 µM (active)
AC50 [14]: 3.97 µM (active)
AC50 (INS1): 6.73 µM (active)
EC50 (Beta-galactosidase): > 40 µM (inactive)
AC50 [15]: 16.2 µM (active)
AC50 [16]: 8.59 µM (active)
AC50 [17]: 3.96 µM (active)
CC50 [18]: 8.09 µM (active)
EC50 [6]: 2.5 µM (active)
EC50 [19]: 5.64 µM (active)
AC50 [20]: 8.17 µM (active)
IC50 [21]: 3.48 µM (active)

O=C(COC(=O)C1CC(=O)N(Cc2ccccc2)C1)Nc1ccc(Cl)cc1F (centres undefined)
EC50 [22]: > 100 µM (not active)
